{"source": "ChEMBL document CHEMBL5126595", "about": "“Identification and anti-tumor evaluation of 3-acyl-indol-based 2,4-diarylaminopyrimidine analogues as potent ALK inhibitors capable of overcoming drug-resistant mutants” (Eur J Med Chem, 2022)", "key": {"NCI-H2228 [1]": {"system": "NCI-H2228", "experiment": "Induction of cell cycle arrest in human NCI-H2228 cells assessed as increase in G1 phase cells at 25 nM incubated for 48 hrs by PI/RNase staining based flow cytometry analysis (reference value: 49.72 %)", "type": "functional"}, "PC-3": {"system": "PC-3", "experiment": "Antiproliferative activity against human PC-3 cells assessed as inhibition of cell growth incubated for 72 hrs by MTT assay", "type": "functional, cell-based", "conditions": "PC-3, 72 h"}, "NCI-H2228 [2]": {"system": "NCI-H2228", "experiment": "Induction of apoptosis in human NCI-H2228 cells assessed as viable cells at 50 nM incubated for 48 hrs by AnnexinV-FITC/propidium iodide staining based flow cytometry analysis (reference value: 92.3 %)", "type": "functional", "conditions": "read-out: Activity"}, "NCI-H2228 [3]": {"system": "NCI-H2228", "experiment": "Inhibition of cell migration in human NCI-H2228 cells at 10 nM measured at 48 hrs by inverted microscopic based cell scratch assay relative to control", "type": "functional"}, "[4]": {"experiment": "Volume of distribution at steady state in Sprague-Dawley rat at 2 mg/kg, iv by LC-MS/MS analysis", "type": "ADME, organism-based", "conditions": "in vivo, read-out: Vdss"}, "[5]": {"experiment": "AUC (0 to t) in Sprague-Dawley rat at 2 mg/kg, iv by LC-MS/MS analysis", "type": "ADME, organism-based", "design": "dose 2 mg/kg, route iv", "conditions": "in vivo"}, "[6]": {"experiment": "Metabolic stability in Sprague-Dawley rat liver microsomes assessed as half-life at 10 uM preincubated for 5 mins in the presence of NADPH followed by microsomal addition and measured upto 60 mins by HPLC analysis", "type": "ADME, Microsome", "conditions": "time < 65 min"}, "MCF7": {"system": "MCF7", "experiment": "cells", "conditions": "Homo sapiens, MCF7, 72 h", "description": "Antiproliferative activity against human MCF7 cells assessed as inhibition of cell growth incubated for 72 hrs by MTT assay"}, "NCI-H2228 [7]": {"system": "NCI-H2228", "experiment": "Inhibition of cell migration in human NCI-H2228 cells at 2.5 to 10 nM by inverted microscopic based cell scratch assay", "type": "functional", "conditions": "dose 2.5-10 nM, time 24-48 hrs, TDE = time-dependent effect"}, "[8]": {"experiment": "Antiproliferative activity […] EML4-ALK-G1202R cells assessed as inhibition of cell growth incubated for 72 hrs by MTT assay", "type": "functional, cell-based"}, "[9]": {"experiment": "Clearance in Sprague-Dawley rat at 2 mg/kg, iv by LC-MS/MS analysis", "type": "ADME, organism-based", "conditions": "in vivo"}, "NCI-H2228 [10]": {"system": "NCI-H2228", "experiment": "Induction of apoptosis in human NCI-H2228 cells assessed as appearance of apoptotic bodies at 25 to 100 nM incubated for 48 hrs by Hoechst 33342 staining based fluorescence microscopic analysis", "type": "functional, cell-based", "conditions": "dose 25-100 nM"}, "[11]": {"experiment": "Half-life in Sprague-Dawley rat at 10 mg/kg, po by LC-MS/MS analysis", "type": "ADME, organism-based", "conditions": "in vivo"}, "NCI-H2228 [12]": {"system": "NCI-H2228", "experiment": "Induction of apoptosis in human NCI-H2228 cells assessed as early apoptotic cells at 50 nM incubated for 48 hrs by AnnexinV-FITC/propidium iodide staining based flow cytometry analysis (reference value: 2.45 %)", "type": "functional"}}, "note": "Activity calls are given as the source filed them. The rule behind the calls is not given here.", "data": [{"smiles": "CNC(=O)c1ccccc1Nc1nc(Nc2ccc3c(C(=O)N(C)C)c(C)[nH]c3c2)ncc1Cl", "values": [{"measurement": "Activity", "setting": "NCI-H2228 [1]", "result": 53.03, "unit": "%"}, {"measurement": "IC50", "setting": "PC-3", "result": 1380, "unit": "nM"}, {"measurement": "viability at 0.05 µM", "setting": "NCI-H2228 [2]", "result": 74.4, "unit": "%"}, {"measurement": "inhibition at 0.01 µM", "setting": "NCI-H2228 [3]", "result": 4.5, "unit": "%"}, {"measurement": "Vd", "setting": "[4]", "result": 7.9, "unit": "L/kg"}, {"measurement": "AUC(0-t)", "setting": "[5]", "result": 879, "unit": "ng·h/mL"}, {"measurement": "half-life at 10 µM", "setting": "[6]", "result": 0.603, "unit": "h"}, {"measurement": "IC50", "setting": "MCF7", "result": 2160, "unit": "nM"}, {"measurement": "inhibition", "setting": "NCI-H2228 [7]", "result": "Tde"}, {"measurement": "IC50", "setting": "[8]", "result": 15, "unit": "nM"}, {"measurement": "clearance", "setting": "[9]", "result": 36.2, "unit": "mL/min/kg"}, {"measurement": "Activity", "setting": "NCI-H2228 [10]", "result": "Active"}, {"measurement": "half-life", "setting": "[11]", "result": 4.1, "unit": "h"}, {"measurement": "Activity", "setting": "NCI-H2228 [12]", "result": 7.44, "unit": "%"}]}]}
